Reference: article PMC12884772, “Macrophagic Sclerostin Loop2‐ApoER2 Interaction Required by Sclerostin for Cardiovascular Protective Action” (Advanced Science, 2025)

Tested on: human differentiated macrophages (THP‐1)
Experiment: LPS‐induced inflammatory responses in human differentiated macrophages (THP‐1), siNC or siLrp8
Type: cell-based
Method: To determine whether the suppressive effects of sclerostin on inflammatory responses in macrophages were dependent on ApoER2 in vitro, PMA (100 ng/mL, 48 h)‐induced human differentiated macrophages (THP‐1 cells, Procell Life Science & Technology, CL‐0233) and mouse macrophages (RAW 264.7 cells, ATCC, TIB‐71) were utilized. Human differentiated macrophages or mouse macrophages were divided into 9 groups (n = 3 per group), respectively, including (1) siNC, (2) siNC + LPS, (3) siNC + LPS + SOST 500 nM or 250 nM, (4) siNC + LPS + SOST 1 µM or 500 nM, (5) siNC + LPS + SOST 2 µM or 1 µM, (6) siLrp8 + LPS + SOST 500 nM or 250 nM, (7) siLrp8 + LPS + SOST 1µM or 500 nM, (8) siLrp8 + LPS + SOST 2 µM or 1 µM, (9) siLrp8 + LPS. Cells in groups (6‐9) were transfected with siRNA targeting human/mouse Lrp8 (human siLrp8: Santa Cruz Biotechnology sc‐40097, mouse siLrp8: Santa Cruz Biotechnology sc‐40098), while cells in groups (1‐5) were transfected with empty vector as control (siNC). 24 h later, cells in group (3)/(6), (4)/(7), and (5)/(8) were treated with recombinant human or mouse sclerostin for 3 h at concentration of 500 nM or 250 nM, 1 µM or 500 nM, as well as 2 µM or 1 µM, respectively, while cells in groups (1), (2), and (9) were treated with vehicle. Then, cells in groups (2‐9) were treated with LPS (100 ng/mL or 1 µg/mL) for 18 h. All groups of cell lysates were collected for determining the mRNA expression levels of TNF‐α, MCP‐1, and IL‐10 (human or mouse, respectively) by RT‐PCR.^[ [34] ^] Cell mediums were collected for determining the protein expression/secretion levels of TNF‐α, MCP‐1, and IL‐10 (human or mouse, respectively) by ELISA.^[ [34] ^]
Total RNA was extracted from cells following the protocols of Trizol reagent (Invitrogen, 15 596 026). […] The relative gene expression levels were calculated using the 2^−ΔΔCt method with GAPDH as the reference gene.^[ [40] ^] […]

[1] = THP‐1, LPS 100 ng/mL 18 h, recombinant human sclerostin 500 nM-2 µM for 3 h, RT‐PCR and ELISA, n = 3

For “sclerostin: recombinant human/mouse full‐length sclerostin protein”, the “mRNA expression and protein expression/secretion of IL‐10” value [1] was “promoted”, the “mRNA expression and protein expression/secretion of TNF‐α and MCP‐1” value [1] was “inhibited” and the “Effects of sclerostin on cytokine/chemokine expression/secretion upon Lrp8 silencing” value (THP‐1 with siLrp8, LPS 100 ng/mL 18 h) was “not detected”.
